Laboratory results published in the supplement of paper PMC10307832.

Legend:
Assay in all cases: relative viability (nuclei count vs DMSO), 5 days (fraction); higher = more cells survive
[1] = compound: CC1=CC(=C(N1C2=CC=C(C=C2)Cl)C)C(=O)CN3CCCCC3 [IU1-47] + CC(=O)Nc1cccc(-n2c(=O)n(C3CC3)c(=O)c3c(Nc4ccc(I)cc4F)n(C)c(=O)c(C)c32)c1 [Trametinib] (partner 0.02 µM)
In short: (§1)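 Dosing by pin tool came one day after lung cancer cell lines were seeded in 1536-well plates, using either one drug or a fixed anchor-drug dose plus five library-drug doses (not always all listed) in √10 steps. After 5 days, nuclei were counted on 4× images. Relative viability is treated-well nuclei count divided by vehicle-well nuclei count, and values are medians of duplicate plates.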

[2] = compound: CC1=CC(=C(N1C2=CC=C(C=C2)Cl)C)C(=O)CN3CCCCC3 [IU1-47] + Cc1nc(NC(=O)N2CCC[C@H]2C(N)=O)sc1-c1ccnc(C(C)(C)C(F)(F)F)c1 [Alpelisib] (partner 2 µM)
In short: as §1

[3] = compound: CC1=CC(=C(N1C2=CC=C(C=C2)Cl)C)C(=O)CN3CCCCC3 [IU1-47] + N=C(N)NC(=N)NCCc1ccccc1 [Phenformin] (partner 250 µM)
In short: as §1

[4] = compound: Cc1nc(C(=O)NCC(=O)O)c(O)c2ccc(Oc3ccccc3)cc12 [FG-4592] + O=C(CCCCCCC(=O)Nc1ccccc1)NO [Vorinostat] (partner 1 µM)
In short: as §1

Cell Line	relative viability ([1]; first compound 0.08 µM)	relative viability ([1]; first compound 0.253 µM)	relative viability ([1]; first compound 0.8 µM)	relative viability ([1]; first compound 2.53 µM)	relative viability ([1]; first compound 8 µM)	relative viability ([2]; first compound 0.08 µM)	relative viability ([2]; first compound 0.253 µM)	relative viability ([2]; first compound 0.8 µM)	relative viability ([2]; first compound 8 µM)	relative viability ([3]; first compound 0.08 µM)	relative viability ([3]; first compound 0.253 µM)	relative viability ([3]; first compound 0.8 µM)	relative viability ([3]; first compound 2.53 µM)	relative viability ([3]; first compound 8 µM)	relative viability ([4]; first compound 0.08 µM)	relative viability ([4]; first compound 0.253 µM)	relative viability ([4]; first compound 0.8 µM)	relative viability ([4]; first compound 2.53 µM)	relative viability ([4]; first compound 8 µM)	relative viability ([2]; first compound 2.53 µM)
HCC-366	0.402	0.431	0.394	0.423	0.323	0.479	0.424	0.524	0.231	0.648	0.561	0.648	0.584	0.594	0.263	0.269	0.185	0.308	0.33	
HCC-827	0.565	0.481	0.596	0.54	0.517	1.08	1.05	0.91	0.905	0.44	0.425	0.416	0.464	0.37	0.85	0.823	0.927	0.842	0.81	1.1
HOP-62	0.4	0.332	0.387	0.383	0.348	1.16	1.21	1.05	1.01	0.756	0.792	0.719	0.675	0.543	0.61	0.686	0.451	0.486	0.816	1.11
IA-LM						0.738	0.595	0.854	0.526						0.826	0.83	0.814	0.943	1.04	0.679
LC-2-ad	0.951	1.02	0.954		0.884	0.897	0.951	0.919	0.767	0.616	0.607	0.577	0.558	0.57	0.715	0.645	0.782	0.637	0.683	0.973
LCLC-97TM1	0.201	0.188	0.198		0.179	0.276	0.248	0.249	0.242	0.441	0.409	0.435	0.428	0.461	0.63	0.737		0.328	0.671	
LCLC-103H	0.71	0.817	0.701	0.647	0.7	0.854	0.989	0.983	1.05	0.334	0.369	0.326	0.423	0.298	0.75	0.733	0.677	0.707	0.747	0.914
LK-2	0.932	0.834	0.772	0.545	0.831	1.13	1.23	1.63	0.628	0.467	0.504	0.432	0.579	0.239	0.299	0.245	0.228	0.208	0.214	0.997
LOU-NH91	0.904	0.845	0.844	0.795	0.749	0.761	0.75	0.71	0.668	0.855	0.942	0.771	0.672	0.698	0.993	0.86	0.817	0.866	0.95	0.692
